Measured values reported in PMC10180349 (Molecules, 2023).

Experiments:
[1] = test system: MDA-MB-231 xenograft tumor tissue; experiment: TUNEL assay of tumor slides; format: in vivo, Female BALB/c nude mice; settings: PTX-TTHA 6.87-13.73 mg/kg q3d; PTX 10 mg/kg q7d
Protocol: The tumor slides of MDA-MB-231 xenograft mice were deparaffinized and rehydrated as per the method described above. Then, the TUNEL assay was performed according to the manufacturer’s instructions. Briefly, slides were permeabilized with proteinase K for 20 min and blocked with 3% H2O2 for 10 min. After washing, slides were incubated with Biotin labeling solution for 1 h, and the nucleus was counterstained with DAPI for 1 min. The localized red fluorescence of the apoptotic cells was visualized by fluorescence microscopy. Two experienced pathologists randomly selected 10 (×200) fields for every slide and then analyzed them. The percentage of TUNEL-positive cells among total cells was semi-quantitatively measured with the Image-J software.

MCF-7 [2] = experiment: cells; settings: Homo sapiens, MCF7, 48 h
MDA-MB-231 cells [3] = experiment: Transmission electron microscopy of treated cells; format: cell-based, Human; settings: MDA-MB-231, 0.1 nM, 48 h
Protocol: Ultrathin sections were isolated, stained with uranyl acetate and lead citrate for 10 min, and finally observed through the Hitachi H-7650 transmission electron microscope (Tokyo, Japan). The PTX-treated group was used as a positive control.

[4] = cited from earlier work
[5] = Solubility experiment in water; settings: for appearance of sample in water (solubility by photograph): diluted to 5 mg/mL by water
MDA-MB-231 cells [6] = experiment: Annexin V-FITC/PI flow cytometry apoptosis assay; format: cell-based, Human; settings: 48 h
Protocol: Cell apoptosis analysis was performed according to the manufacturer’s protocol of the Annexin V-FITC Detection kit (Beyotime, Shanghai, China). […] Finally, the samples were tested by flow cytometer (BD FACSCelesta) and analyzed using FlowJo Software (Tree Star Inc., Ashland, OR, USA). The PTX-treated group was used as a positive control.

4T1 [7] = experiment: cells; settings: Mus musculus, 4T1, 48 h
[8] = test system: microtubules in MDA-MB-231 cells; experiment: Immunofluorescence staining of microtubules (α-tubulin antibody); format: cell-based, Human; settings: MDA-MB-231, 0.1 nM, 48 h
Protocol: Cells were fixed with 4% paraformaldehyde for 20 min, permeabilized with 0.1%Triton X-100 for 5 min, and blocked with 1% BSA for 1.5 h. Next, cells were incubated with α-tubulin antibody (1:400 Abcam, AB52866) at 4 °C overnight, followed by the Alexa Fluor 488 conjugated goat anti-rabbit IgG secondary antibody (1:300, ZF-0511, Zhongshan Goldenbridge Biotechnology, Beijing, China). Finally, nuclei were stained with DAPI for 4 min. Stained cells were observed using a laser confocal microscope (LSM700; Zeiss, Gottingen, Germany). The PTX-treated group was used as a positive control.

[9] = Acute-toxicity experiment, single dose via tail vein
MDA-MB-231 [10] = experiment: cells; settings: Homo sapiens, MDA-MB-231, 48 h
physchem = settings: water
MDA-MB-231 cells [11] = experiment: Cell cycle analysis (PI, flow cytometry); format: cell-based, Human; settings: 48 h
Protocol: Cell cycle assay was performed using the DNA Content Quantitation Assay (Solarbio, Beijing, China). […] Then, the fixed cells were incubated with RNase A solution at 37 °C for 30 min and stained with PI in the dark for 30 min at 4 °C. The red fluorescence was detected using a flow cytometer (BD FACSCalibur) at 488 nm and analyzed by FlowJo Software (Tree Star Inc, Ashland, OR, USA). The PTX-treated group was set as a positive control.

Ki-67 = Ki-67 immunohistochemical staining of tumor slides; format: in vivo, Female BALB/c nude mice; settings: 6.87, 10.30, 13.73 mg/kg q3d, p < 0.01
Protocol: The tumor slides of MDA-MB-231 xenograft mice were deparaffinized and rehydrated as per the method described above. Next, slides were boiled in citrate antigen retrieval solution for 2 min and then blocked with 3% H2O2 for 10 min. After washing, slides were incubated with primary Ki-67 antibody (1:400, Abcam AB15580) at 4 °C overnight, followed by incubation with the goat anti-rabbit HRP-conjugated secondary antibody (1:500) for 1 h at RT. Finally, slides were stained with DAB chromogenic reagent and hematoxylin. Images were visualized using a Zeiss microscope (Carl Zeiss Meditec AG, Jena, Germany). Three separate visual fields were randomly selected from each slice. The percentage of the positive area was semi-quantitatively analyzed with the Image-J software.

4T1 [12] = settings: SI = IC50 MCF 10A/IC50 4T1, 48 h
MDA-MB-231 [13] = settings: SI = IC50 MCF 10A/IC50 MDA-MB-231, 48 h
MCF-7 [14] = settings: SI = IC50 MCF 10A/IC50 MCF-7, 48 h
MCF 10A = format: cell-based; settings: Homo sapiens, 48 h
Bcl-2 = experiment: Western blot of xenograft tumor tissues; format: in vivo, Female BALB/c nude mice; settings: 6.87, 10.30, 13.73 mg/kg q3d, dose-dependent, p < 0.01
Protocol: (§1) The removed tumor tissues were cut into pieces and homogenized in RIPA lysis buffer (Cat#P0013B; Beyotime, Shanghai, China) containing PMSF protease inhibitor (Cat#ST506; Beyotime, Shanghai, China) (RIPA: PMSF = 100:1) using a glass homogenizer on ice for 30 min. The lysates were harvested by centrifugation (12,000 rpm) at 4 °C for 5 min. The protein concentrations were measured by BCA Protein Assay Kit (Beyotime, Shanghai, China) and boiled at 95 °C for 5 min. Then, equal amounts of proteins (30 μg) from five groups were separated by 10% SDS-PAGE and transferred to PVDF membranes (EMD Millipore, Billerica, MA, USA). The membranes were blocked with 5% non-fat milk for 2 h and washed with TBST buffer. Next, membranes were incubated with primary antibodies (β-actin, cleaved caspase-3, Bax, Bcl-2) at a dilution of 1:1000 at 4 °C overnight, followed by the goat anti-rabbit HRP-conjugated secondary antibody (1:5000) for 2 h at room temperature. β-actin was used as an internal control. Protein bands were visualized by a chemiluminescence detection system (Bio-Rad, Hercules, CA, USA) and quantitated using the Image-J software.

Bax = experiment: Western blot of xenograft tumor tissues; format: in vivo, Female BALB/c nude mice; settings: 6.87, 10.30, 13.73 mg/kg q3d, dose-dependent, p < 0.01
Protocol: as §1

cleaved caspase-3 = experiment: Western blot of xenograft tumor tissues; format: in vivo, Female BALB/c nude mice; settings: 6.87, 10.30, 13.73 mg/kg q3d, dose-dependent, p < 0.01
Protocol: as §1

[15] = test system: MDA-MB-231 xenograft breast tumor model; experiment: In vivo antitumor assay; settings: medium dose 10.30 mg/kg (MPTX-TTHA), q3d, tail vein, 21 days
caspase-3 = experiment: Caspase-3 activity assay in cell lysates; format: cell-based, Human; settings: MDA-MB-231, 0.1 and 1 nM, 48 h
Protocol: The activity of caspase-3 was performed according to the manufacturer’s protocol of the Caspase-3 Activity Assay Kit (Beyotime, Shanghai, China). […] Then, the absorbance was measured at 405 nm using a Microplate Reader (Thermo 3001, Vantaa, Finland), and the protein concentration was obtained via Bradford assay. Data were normalized for the protein content of each supernatant and expressed as the relative value compared to the control. The PTX-treated group was used as a positive control.

[16] = Organ-body indices and signs of toxicity in the xenograft model; settings: q3d, 3 weeks

Which “TUNEL signal of apoptotic cells in tumor tissue” value [1] does the source give for CC(=O)O[C@H]1C(=O)[C@@]2(C)[C@H]([C@H](OC(=O)c3ccccc3)[C@]3(O)C[C@H](OC(=O)[C@H](O)[C@@H](NC(=O)c4ccccc4)c4ccccc4)C(C)=C1C3(C)C)[C@]1(OC(C)=O)CO[C@@H]1C[C@@H]2O [PTX, Paclitaxel, reference compound] here?
Its value is “strong red fluorescent signal”.

What about the IC50 (MCF-7 [2]) of the same compound?
The IC50 was 9.99 ± 0.94 nM.

And the “morphological changes of apoptosis (TEM)” value (MDA-MB-231 cells [3])?
Its value is “remarkable cellular apoptosis-related characteristics were observed”.

And the solubility in water [4]?
Its solubility in water is 0.3 to 0.5 µg/mL.

And the “appearance of sample in water (solubility by photograph)” value [5]?
Its value is “almost insoluble in water”.

What about the cell apoptosis rate (MDA-MB-231 cells [6]; 0.1 nM, control 2.17% ± 0.76%) of the same compound?
The cell apoptosis rate was 29.57% ± 3.31.

And the IC50 (4T1 [7])?
Its IC50 is 9.45 ± 1.34 nM.

And the “microtubule fluorescence intensity compared with the control group” value [8]?
Its value is “enhanced fluorescence intensity of microtubules”.

And the “ALT, AST, Scr, WBC and NEUT values compared with controls” value ([9]; 20 mg/kg CrEL paclitaxel, Taxol (PTX), day 3, p < 0.001)?
Its value is “significantly altered”.

And the IC50 (MDA-MB-231 [10])?
Its IC50 is 8.68 ± 0.75 nM.

What about the solubility (physchem) of the same compound?
Its solubility is < 0.7 µg/mL.

What about the “cells in G2/M phase” value (MDA-MB-231 cells [11]; 0.1 nM, control 8.74 ± 0.60%) of the same compound?
Its value is 24.22 ± 0.70%.

What does the source list for CC(=O)O[C@H]1C(=O)[C@@]2(C)[C@H]([C@H](OC(=O)c3ccccc3)[C@]3(O)C[C@H](OC(=O)[C@H](OC(=O)CN(CCN(CCN(CCN(CC(=O)O)CC(=O)O)CC(=O)O)CC(=O)O)CC(=O)O)[C@@H](NC(=O)c4ccccc4)c4ccccc4)C(C)=C1C3(C)C)[C@]1(OC(C)=O)CO[C@@H]1C[C@@H]2O [PTX-TTHA, 3,6,9,12-Tetraazatetradecanedioic acid, 3,6,9,12-tetrakis(carboxymethyl)-1-[2-(benzoylamino)-1-[[[6,12b-bis(acetyloxy)-12-(benzoyloxy)-2a,3,4,4a,5,6,9,10,11,12,12a,12b-dodecahydro-4,11-dihydroxy-4a,8,13,13-tetramethyl-5-oxo-7,11-methano-1H-cyclodeca [3, 4]benz [1,2-b]oxet-9-yl]oxy]carbonyl]-2-phenylethyl] ester]?
TUNEL signal of apoptotic cells in tumor tissue [1]: strong red fluorescent signal; IC50 (MCF-7 [2]): 15.8 ± 1.04 nM; morphological changes of apoptosis (TEM) (MDA-MB-231 cells [3]): remarkable cellular apoptosis-related characteristics were observed; Ki-67 expression in tumor tissues compared with the control group (Ki-67): significantly reduced; appearance of sample in water (solubility by photograph) [5]: completely clear; water solubility, fold higher than that of paclitaxel ([5]; water): about 7140 fold; selectivity index (SI) (4T1 [12]): 21.36; cell apoptosis rate (MDA-MB-231 cells [6]; 0.1 nM, control 2.17% ± 0.76%): 30.4% ± 3.61; cell apoptosis rate (MDA-MB-231 cells [6]; 1 nM): 50.5% ± 2.19; IC50 (4T1 [7]): 17.2 ± 1.96 nM; selectivity index (SI) (MDA-MB-231 [13]): 28.97; microtubule fluorescence intensity compared with the control group [8]: enhanced fluorescence intensity of microtubules; selectivity index (SI) (MCF-7 [14]): 23.19; IC50 (MCF 10A): 367 ± 8.2 nM; Bcl-2 expression level in tumor compared with the control group (Bcl-2): significantly downregulated; Bax expression level in tumor compared with the control group (Bax): significantly upregulated; cleaved caspase-3 expression level in tumor compared with the control group (cleaved caspase-3): significantly upregulated; histopathology of main organs (H&E) ([9]; 138.6 mg/kg, single dose): No histological alterations were observed; body weight change compared with controls ([9]; 138.6 mg/kg, single dose, day 2, normal thereafter): slight weight loss; blood biochemical and hematological test index values compared with control ([9]; 138.6 mg/kg, single dose, day 3 and day 14): no significant differences; toxic signs after administration ([9]; 138.6 mg/kg, single dose, tail vein, 14 days): none of these toxic signs were observed; acute toxicity on vital organs, hematological, and biochemical parameters ([9]; limit dose 138.6 mg/kg, i.v.): no sign of acute toxicity; tumor inhibition rate [15]: ~70.51%; IC50 (MDA-MB-231 [10]): 12.7 ± 1.34 nM; solubility (physchem; thermodynamic from solid): > 5000 µg/mL; caspase-3 activity compared with the control group (caspase-3): significantly activated; signs of toxicity during treatment ([16]; 6.87, 10.30, 13.73 mg/kg, tail vein): No noticeable signs of toxicity were observed; organ-body index, Heart ([16]; HPTX-TTHA, 13.73 mg/kg): 5.56 ± 0.49 mg/g; organ-body index, Kidney ([16]; HPTX-TTHA, 13.73 mg/kg): 16.09 ± 0.50 mg/g; organ-body index, Liver ([16]; HPTX-TTHA, 13.73 mg/kg): 63.73 ± 5.63 mg/g; organ-body index, Lung ([16]; HPTX-TTHA, 13.73 mg/kg): 7.28 ± 0.73 mg/g; organ-body index, Spleen ([16]; HPTX-TTHA, 13.73 mg/kg): 6.20 ± 0.65 mg/g; organ-body index, Heart ([16]; LPTX-TTHA, 6.87 mg/kg): 5.56 ± 0.63 mg/g; organ-body index, Kidney ([16]; LPTX-TTHA, 6.87 mg/kg): 16.03 ± 0.49 mg/g; organ-body index, Liver ([16]; LPTX-TTHA, 6.87 mg/kg): 63.63 ± 4.54 mg/g; organ-body index, Lung ([16]; LPTX-TTHA, 6.87 mg/kg): 7.29 ± 0.79 mg/g; organ-body index, Spleen ([16]; LPTX-TTHA, 6.87 mg/kg): 6.35 ± 0.51 mg/g; organ-body index, Heart ([16]; MPTX-TTHA, 10.30 mg/kg): 5.49 ± 0.15 mg/g; organ-body index, Kidney ([16]; MPTX-TTHA, 10.30 mg/kg): 16.05 ± 0.47 mg/g; organ-body index, Liver ([16]; MPTX-TTHA, 10.30 mg/kg): 63.20 ± 5.17 mg/g; organ-body index, Lung ([16]; MPTX-TTHA, 10.30 mg/kg): 7.16 ± 0.61 mg/g; organ-body index, Spleen ([16]; MPTX-TTHA, 10.30 mg/kg): 6.16 ± 1.05 mg/g; cells in G2/M phase (MDA-MB-231 cells [11]; 0.1 nM, control 8.74 ± 0.60%): 23.06 ± 0.92%; cells in G2/M phase (MDA-MB-231 cells [11]; 1 nM): 51.40% ± 0.45
